What was measured:
[1] = system: human retinal pigmented epithelial cells (ARPE-19); assay: SAβG activity staining in senescent retinal pigmented epithelial cells; type: cell-based; conditions: premature senescent retinal pigmented epithelial cells by doxorubicin; 100 nM, 4 days; vs DMSO-treated group; p<0.01
Method: Each cell was treated in a serum-free culture solution containing 0.5 μM doxorubicin for 4 hours. After washing the cells with a serum-free culture solution, the cells were cultured for 4 days in a culture solution containing 10% FBS, and then cellular aging was confirmed by staining with senescence-associated beta galactosidase (SAβG). After each sample was dissolved in DMSO, young cells, replicative senescent cells, and premature senescent cells treated with doxorubicin were treated with 100 nM zotarolimus, 100 nM rapamycin, 100 nM ABT263, respectively. After incubation for 4 days in a 37° C., 5% CO2 incubator, the degree of cell growth was confirmed by CCK-8 analysis, the degree of cellular aging was confirmed by senescence-related beta-galactosidase (SAβG) staining, The cells were washed with 1× phosphate buffer solution, and fixed with a phosphate buffer solution containing 3.7% (v/v) paraformaldehyde. After adding 1 mg/ml 5-bromo-4-chloro-3-indolyl-6-D-galactoside, 40 mM citric acid-sodium phosphate (pH 6.0), 5 mM potassium ferricyanide, 5 mM potassium ferrocyanide, 150 mM NaCl, and 2 mM MgCl2 solution, it was reacted at 37° C. for 18 hours. It was stained with eosin as a control stain. Cells stained blue in the cytoplasm were identified using an optical microscope. […]

[2] = system: pulmonary fibrosis induced by bleomycin; assay: Lung fibrosis induced by bleomycin in mice; type: in vivo, C57BL/6J mice
Method: Animal experiments were conducted with the approval of the Animal Experimental Ethics Committee, Yeungnam University College of Medicine (YUMC-AEC2018-025). After anesthetizing by injecting 2.5% avertin (Avertin; 0.025 ml/g) into the abdominal cavity of 10-week-old C57BL/6J male mice, 2 mU/g of bleomycin was instilled into the bronchi and injected into the lungs.
From 5 days after bleomycin administration, 2.5 μl of 10 mM zotarolimus was diluted in 100 μl phosphate buffer solution at intervals of 3 days and injected intraperitoneally 6 times (Zota group).
Three mice were used for each group, and lungs were excised by sacrifice 22 days after bleomycin injection and fixed in 10% formalin solution or stored frozen in liquid nitrogen.
(§1) The tissue fixed in 10% formalin solution was embedded with paraffin and cut into 4 μm to prepare a tissue sample. After removing paraffin from the tissue sample, hematoxylin-eosin staining, trichrome staining, and PAS staining were performed.
(§2) The degree of fibrosis was measured by analyzing the degree of collagen staining using the i-Solution™ software program (IMT Inc., Canada) after trichrome staining and the degree of cell senescence in tissue samples was investigated by staining lipofuscin with Sudan black B (Viegas M S, et al., European journal of histochemistry: EJH. 2007). The degree of peritoneal fibrosis was confirmed by measuring the submesothelial thickness of the peritoneal mesothelial cell layer using the NIH Image J program.

[3] = system: peritoneal fibrosis induced by CHG; assay: Peritoneal fibrosis induced by chlorhexidine gluconate (CHG) in mice; type: in vivo, C57BL/6J mice; conditions: i.p. at 2-day intervals from 9th day; vs DMSO group
Method: Animal experiments were conducted with the approval of the Animal Experimental Ethics Committee of Yeungnam University College of Medicine (YUMC-AEC2018-033). Peritoneal fibrosis mice experiments were performed using a model of peritoneal fibrosis induced by chlorhexidine gluconate (CHG) (Yoshio Y et al., Kidney international. 2004).
From the 9th day, 2.5 μl of 10 mM zotarolimus (Zota group) or 2.5 μl of DMSO (DMSO group) was diluted in 100 μl phosphate buffer solution and intraperitoneally injected at intervals of 2 days.
As a negative control (NT group), 100 μl of a 15% ethanol phosphate buffer solution was injected intraperitoneally instead of a 0.1% CHG solution. On the 20th day, the mice were sacrificed, the peritoneal tissue was excised, and the tissue was fixed in 4% paraformaldehyde solution.
as §1
as §2, with “The degree of peritoneal fibrosis was confirmed by measuring the submesothelial thickness of the peritoneal mesothelial cell layer using the NIH Image J program.” left out

[4] = system: human tubular epithelial cell (HK2); assay: CCK-8 cell growth analysis in premature senescent HK2 cells; type: cell-based; conditions: premature senescent HK2 cells by doxorubicin; 100 nM, 4 days; vs DMSO-treated group
Method: Each cell was treated in a serum-free culture solution containing 0.5 μM doxorubicin for 4 hours. After washing the cells with a serum-free culture solution, the cells were cultured for 4 days in a culture solution containing 10% FBS, and then cellular aging was confirmed by staining with senescence-associated beta galactosidase (SAβG). After each sample was dissolved in DMSO, young cells, replicative senescent cells, and premature senescent cells treated with doxorubicin were treated with 100 nM zotarolimus, 100 nM rapamycin, 100 nM ABT263, respectively. After incubation for 4 days in a 37° C., 5% CO2 incubator, the degree of cell growth was confirmed by CCK-8 analysis, the degree of cellular aging was confirmed by senescence-related beta-galactosidase (SAβG) staining, Young cells (1×10^3 cells/well) or senescent cells (2×10^3 cells/well) were dispensed into a 96-well plate, and cultured overnight in a 37° C., 5% CO2 incubator. Zotarolimus, ABT263 and rapamycin were treated at each concentration, and then incubated for 4 days in a 37° C., 5% CO2 incubator. […] Then, the absorbance was measured at 450 nm using a microplate reader. The degree of cell growth was expressed as a relative value for the absorbance of the control group treated with only DMSO as 100%. […]

[5] = i.p. 6 times at 3-day intervals from day 5, vs PBS group

CO[C@H]1C[C@@H]2CC[C@@H](C)[C@@](O)(O2)C(=O)C(=O)N2CCCC[C@H]2C(=O)O[C@H]([C@H](C)C[C@@H]2CC[C@H](n3cnnn3)[C@H](OC)C2)CC(=O)[C@H](C)/C=C(\C)[C@@H](O)[C@@H](OC)C(=O)[C@H](C)C[C@H](C)/C=C/C=C/C=C/1C [zotarolimus]
SAβG activity staining [1]: significantly decreased
weight gain ([2]; before induction vs 20th day, vs NT group): significantly decreased
degree of lung fibrosis (trichrome staining) [2, 5]: statistically significantly reduced
degree of lung tissue damage (hematoxylin-eosin staining) [2, 5]: statistically significantly reduced
weight ([2]; vs PBS group): further increased compared to that of the PBS group
degree of fibrosis (peritoneal) [3]: decreased
thickness of the peritoneal mesothelial cell layer [3]: significantly reduced
cell growth (CCK-8) [4]: no difference in the growth

Source: patent US20220023271A1, “COMPOSITION FOR PREVENTING OR TREATING CELLULAR SENESCENCE-RELATED DISEASES COMPRISING ZOTAROLIMUS AS ACTIVE INGREDIENT” (RESEARCH COOPERATION FOUNDATION OF YEUNGNAM UNIVERSITY, priority 2018, published 2022)
